This test deals with BDF1 mice, P388 leukemia ip, median survival T/C. Kind of test: NCI In Vivo Anticancer Drug Screen. Data for tumor model P388 Leukemia (intraperitoneal) in B6D2F1 (BDF1) mice. Particulars: endpoint: median survival time, higher = longer survival. The method, boiled down:
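Transplantable tumour in mice; compound vs vehicle dosing; survival scored; ratio of treated to control reported.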

[1] abbreviates: dose: 100.0 mg/kg/injection, schedule: Q04DX003 (ip), vehicle: Klucel (hydroxypropylcellulose) (HPC).
The mark [2] stands for this setting: dose: 200.0 mg/kg/injection, schedule: Q04DX003 (ip), vehicle: Klucel (hydroxypropylcellulose) (HPC).
Where [3] appears, read: dose: 400.0 mg/kg/injection, schedule: Q04DX003 (ip), vehicle: Klucel (hydroxypropylcellulose) (HPC).
The mark [4] stands for this setting: dose: 50.0 mg/kg/injection, schedule: Q04DX003 (ip), vehicle: saline with Tween-80.
Setting [5] is: dose: 100.0 mg/kg/injection, schedule: Q04DX003 (ip), vehicle: saline with Tween-80.
[6] abbreviates: dose: 12.5 mg/kg/injection, schedule: Q04DX003 (ip), vehicle: saline.
Where [7] appears, read: dose: 50.0 mg/kg/injection, schedule: Q01DX009 (ip), vehicle: saline with Tween-80.
The mark [8] stands for this setting: dose: 100.0 mg/kg/injection, schedule: Q01DX009 (ip), vehicle: saline with Tween-80.
Where [9] appears, read: dose: 200.0 mg/kg/injection, schedule: Q01DX009 (ip), vehicle: saline with Tween-80.
[10] abbreviates: dose: 200.0 mg/kg/injection, schedule: Q04DX003 (ip), vehicle: saline with Tween-80.
Setting [11] is: dose: 400.0 mg/kg/injection, schedule: Q01DX009 (ip), vehicle: saline with Tween-80.
The mark [12] stands for this setting: dose: 200.0 mg/kg/injection, schedule: Q01DX009 (ip), vehicle: Klucel (hydroxypropylcellulose) (HPC).
[13] abbreviates: dose: 400.0 mg/kg/injection, schedule: Q01DX009 (ip), vehicle: Klucel (hydroxypropylcellulose) (HPC).
[14] abbreviates: dose: 50.0 mg/kg/injection, schedule: Q01DX009 (ip), vehicle: water.
The mark [15] stands for this setting: dose: 100.0 mg/kg/injection, schedule: Q01DX009 (ip), vehicle: water.
The mark [16] stands for this setting: dose: 200.0 mg/kg/injection, schedule: Q01DX009 (ip), vehicle: water.

Where “and” joins values, the source holds several entries; their conditions need not be identical. Equal entries are not always repeated. Toxic doses and inconclusive results are not listed.

`CC(C)(C)OC(=O)NNC(c1ccccc1)c1ccccc1`: the T/C is 91 % of control (dose: 50.0 mg/kg/injection, schedule: Q01DX001 (ip), vehicle: Klucel (hydroxypropylcellulose) (HPC)); 105 % of control (dose: 50.0 mg/kg/injection, schedule: Q01DX009 (ip), vehicle: other); 91 % of control (dose: 100.0 mg/kg/injection, schedule: Q01DX001 (ip), vehicle: Klucel (hydroxypropylcellulose) (HPC)); 110 % of control (dose: 100.0 mg/kg/injection, schedule: Q01DX009 (ip), vehicle: other); 105 % of control under setting [1]; 95 % of control (dose: 200.0 mg/kg/injection, schedule: Q01DX001 (ip), vehicle: Klucel (hydroxypropylcellulose) (HPC)). In addition, the T/C was 100 % of control (dose: 200.0 mg/kg/injection, schedule: Q01DX009 (ip), vehicle: other); 110 % of control under setting [2]; 105 % of control under setting [3].

`COc1cc(C=Nc2cccc(C(=O)O)c2)ccc1N(CCCl)CCCl`: for the setting “dose: 66.0 mg/kg/injection, schedule: Q04DX003 (ip), vehicle: saline with Tween-80”, the T/C was 260 % of control.

Regarding `CC(C)(C)c1ccc(C(=O)C2CC2)cc1`, the T/C was 90 % of control (dose: 25.0 mg/kg/injection, schedule: Q04DX003 (ip), vehicle: saline with Tween-80); 95 % of control under setting [4]; 86 % of control under setting [5].

On to `CCN(CC)P(=O)(N1CC1C)N1CC1C` (centres undefined), for which the T/C (dose: 4.4 mg/kg/injection, schedule: Q01DX009 (ip), vehicle: saline) is 109 % of control; the T/C (dose: 6.6 mg/kg/injection, schedule: Q01DX009 (ip), vehicle: saline) was 109 % of control; the T/C (dose: 10.0 mg/kg/injection, schedule: Q01DX009 (ip), vehicle: saline) is 104 % of control; the T/C under setting [6] is 116 % of control; the T/C (dose: 13.2 mg/kg/injection, schedule: Q01DX009 (ip), vehicle: saline) is 118 % of control; the T/C (dose: 15.0 mg/kg/injection, schedule: Q01DX009 (ip), vehicle: saline) is 113 % of control. The T/C is 157 % of control and 180 % of control (dose: 20.0 mg/kg/injection, schedule: Q01DX009 (ip), vehicle: saline); 100 % of control (dose: 25.0 mg/kg/injection, schedule: Q04DX003 (ip), vehicle: saline); 150 % of control (dose: 30.0 mg/kg/injection, schedule: Q01DX009 (ip), vehicle: saline); 121 % of control (dose: 33.0 mg/kg/injection, schedule: Q04DX003 (ip), vehicle: saline); 90 % of control (dose: 45.0 mg/kg/injection, schedule: Q01DX009 (ip), vehicle: saline); 113 % of control (dose: 50.0 mg/kg/injection, schedule: Q04DX003 (ip), vehicle: saline). Besides, where the note is “dose: 75.0 mg/kg/injection, schedule: Q04DX003 (ip), vehicle: saline”, the T/C is 169 % of control.

Consider `Nc1ccc(OCCCCNC(=O)c2ccc(S(=O)(=O)F)cc2)c(Cl)c1`, for which the T/C (dose: 0.78 mg/kg/injection, schedule: Q01DX009 (ip), vehicle: saline with Tween-80) is 94 % of control; the T/C (dose: 1.56 mg/kg/injection, schedule: Q01DX009 (ip), vehicle: saline with Tween-80) is 111 % of control; the T/C (dose: 3.12 mg/kg/injection, schedule: Q01DX009 (ip), vehicle: saline with Tween-80) was 102 % of control; the T/C (dose: 6.25 mg/kg/injection, schedule: Q01DX009 (ip), vehicle: saline with Tween-80) was 100 % of control; the T/C (dose: 12.5 mg/kg/injection, schedule: Q01DX009 (ip), vehicle: saline with Tween-80) was 102 % of control; the T/C (dose: 25.0 mg/kg/injection, schedule: Q01DX009 (ip), vehicle: saline with Tween-80) was 86 % of control and 100 % of control and 115 % of control. The T/C reads like this: under setting [7], 110 % of control; under setting [8], 117 % of control; under setting [5], 103 % of control; under setting [9], 110 % of control; under setting [10], 99 % of control.

In the case of `CC#CCOCC1CN(c2ccccc2)C(=O)O1` (centres undefined), the T/C runs as follows: (dose: 100.0 mg/kg/injection, schedule: Q04DX003 (ip), vehicle: saline) 92 % of control; under setting [9], 100 % of control; (dose: 200.0 mg/kg/injection, schedule: Q04DX003 (ip), vehicle: saline) 92 % of control; under setting [11], 100 % of control; (dose: 400.0 mg/kg/injection, schedule: Q04DX003 (ip), vehicle: saline) 100 % of control.

For the molecule `O=P(N1CC=CCC1)(N1CC1)N1CC1`, the T/C is, setting by setting: (dose: 2.2 mg/kg/injection, schedule: Q01DX009 (ip), vehicle: saline) 115 % of control; (dose: 3.3 mg/kg/injection, schedule: Q01DX009 (ip), vehicle: saline) 105 % of control; (dose: 5.0 mg/kg/injection, schedule: Q01DX009 (ip), vehicle: saline) 161 % of control; (dose: 6.25 mg/kg/injection, schedule: Q01DX009 (ip), vehicle: saline) 190 % of control; (dose: 7.5 mg/kg/injection, schedule: Q01DX009 (ip), vehicle: saline) 195 % of control; (dose: 12.5 mg/kg/injection, schedule: Q01DX009 (ip), vehicle: saline) 245 % of control and 191 % of control. Further, where the note is “dose: 25.0 mg/kg/injection, schedule: Q01DX009 (ip), vehicle: saline”, the T/C was 87 % of control and 90 % of control.

In the case of `CC(C)(C)C(=O)CC(=O)C(F)(F)C(F)(F)C(F)(F)F.CC(C)(C)C(=O)CC(=O)C(F)(F)C(F)(F)C(F)(F)F.CC(C)(C)C(=O)CC(=O)C(F)(F)C(F)(F)C(F)(F)F.[Fe]`, the T/C (dose: 100.0 mg/kg/injection, schedule: Q01DX009 (ip), vehicle: Klucel (hydroxypropylcellulose) (HPC)) is 97 % of control; the T/C under setting [12] was 114 % of control; the T/C under setting [13] was 97 % of control.

On to `CC([NH-])=O.CC([NH-])=O.[Pt+2]`, for which the T/C by setting is: (dose: 25.0 mg/kg/injection, schedule: Q01DX009 (ip), vehicle: water) 96 % of control; under setting [14], 104 % of control; under setting [15], 102 % of control; under setting [16], 107 % of control; (dose: 300.0 mg/kg/injection, schedule: Q01DX009 (ip), vehicle: water) 112 % of control.

Take `O=C(Cl)c1ccc(N2C(=O)c3ccccc3C2=O)cc1[N+](=O)[O-]`: the T/C under setting [7] was 118 % of control; the T/C under setting [4] was 96 % of control; the T/C under setting [8] was 121 % of control; the T/C under setting [5] was 102 % of control; the T/C under setting [9] is 115 % of control; the T/C under setting [10] is 100 % of control. The T/C is 101 % of control under setting [11] and 105 % of control (dose: 400.0 mg/kg/injection, schedule: Q04DX003 (ip), vehicle: saline with Tween-80).

Consider `Nc1ccn(CC(=O)c2ccc(Cl)s2)c(=O)n1`, for which the T/C by setting is: under setting [14], 100 % of control; under setting [15], 108 % of control; under setting [16], 100 % of control.

For the molecule `CC1(C)C(O)(C#N)C(C)(C)C1(O)C#N` (centres undefined), the T/C runs as follows: (dose: 3.13 mg/kg/injection, schedule: Q04DX003 (ip), vehicle: saline) 100 % of control; (dose: 6.25 mg/kg/injection, schedule: Q04DX003 (ip), vehicle: saline) 109 % of control; under setting [6], 95 % of control.

`CN(C)c1ccc(C=C(C#N)C#N)cc1`: the T/C under setting [1] is 100 % of control; the T/C under setting [12] is 90 % of control; the T/C under setting [2] is 100 % of control; the T/C under setting [13] is 113 % of control; the T/C under setting [3] is 90 % of control.

As for `O=[N+]([O-])/C=C\c1cc2c3c(c1)CCCN3CCC2`, the T/C by setting is: (dose: 3.13 mg/kg/injection, schedule: Q01DX001 (ip), vehicle: saline with Tween-80) 100 % of control; (dose: 6.25 mg/kg/injection, schedule: Q01DX001 (ip), vehicle: saline with Tween-80) 100 % of control; (dose: 12.5 mg/kg/injection, schedule: Q01DX001 (ip), vehicle: saline with Tween-80) 104 % of control.

The values above are taken from PubChem BioAssay AID328 (DTP/NCI, 2004).
